Measured values: article PMC5698089 (Archives of biochemistry and biophysics, 2017)

Tests used:
Assay in all cases: surface plasmon resonance, immobilized protein, […] model
Format in all cases: binding
[1] = target: T1, SR-B2 (Scavenger receptor class B protein 2) (Homo sapiens, UniProt Q14108)
T1 sequence (Q14108 1-478): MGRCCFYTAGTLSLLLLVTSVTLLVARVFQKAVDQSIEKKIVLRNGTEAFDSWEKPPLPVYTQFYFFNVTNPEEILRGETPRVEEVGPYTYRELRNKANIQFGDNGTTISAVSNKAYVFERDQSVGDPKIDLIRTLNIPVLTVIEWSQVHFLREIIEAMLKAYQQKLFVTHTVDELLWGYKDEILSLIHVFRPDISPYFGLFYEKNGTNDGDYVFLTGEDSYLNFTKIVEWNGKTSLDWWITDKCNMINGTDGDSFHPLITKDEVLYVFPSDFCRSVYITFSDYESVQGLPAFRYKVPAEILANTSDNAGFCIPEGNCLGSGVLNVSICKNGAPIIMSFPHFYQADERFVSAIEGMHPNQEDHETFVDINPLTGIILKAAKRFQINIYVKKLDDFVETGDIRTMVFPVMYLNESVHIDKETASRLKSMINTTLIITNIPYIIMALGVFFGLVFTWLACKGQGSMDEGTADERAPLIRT

[2] = target: T2, SR-B1 (Scavenger receptor class B protein 1) (Homo sapiens, UniProt Q8WTV0)
T2 sequence (Q8WTV0 33-443 limits assumed): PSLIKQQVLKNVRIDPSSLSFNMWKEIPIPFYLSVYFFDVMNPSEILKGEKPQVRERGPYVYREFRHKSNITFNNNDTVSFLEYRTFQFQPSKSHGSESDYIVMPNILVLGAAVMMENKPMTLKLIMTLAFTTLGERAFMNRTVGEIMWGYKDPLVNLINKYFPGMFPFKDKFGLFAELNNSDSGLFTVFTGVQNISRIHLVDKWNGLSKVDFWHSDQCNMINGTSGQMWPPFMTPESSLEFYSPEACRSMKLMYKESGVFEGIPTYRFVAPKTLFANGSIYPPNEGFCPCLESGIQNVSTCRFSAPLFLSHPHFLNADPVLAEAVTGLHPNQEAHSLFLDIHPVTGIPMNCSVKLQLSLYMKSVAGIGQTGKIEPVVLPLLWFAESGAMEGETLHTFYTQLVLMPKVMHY

[3] = target: CD36 (Cluster determinant 36) (Homo sapiens, UniProt P16671)
Chain of CD36 (Cluster determinant 36) (P16671 30-439 limits assumed): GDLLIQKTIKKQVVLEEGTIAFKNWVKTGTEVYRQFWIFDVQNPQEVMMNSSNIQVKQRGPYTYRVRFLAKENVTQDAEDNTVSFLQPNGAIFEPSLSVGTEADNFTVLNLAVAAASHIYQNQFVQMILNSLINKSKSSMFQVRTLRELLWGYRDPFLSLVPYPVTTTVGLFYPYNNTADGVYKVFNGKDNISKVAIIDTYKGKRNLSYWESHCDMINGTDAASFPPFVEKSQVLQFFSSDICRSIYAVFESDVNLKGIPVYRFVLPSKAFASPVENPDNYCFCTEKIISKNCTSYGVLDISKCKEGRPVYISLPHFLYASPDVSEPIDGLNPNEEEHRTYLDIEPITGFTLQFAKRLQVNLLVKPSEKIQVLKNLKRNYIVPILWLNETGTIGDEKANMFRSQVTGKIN

Kd [1] [nM]	Kd [2] [nM]	Kd [3] [nM]	Compound
1530 ± 40	1600 ± 100	920 ± 7	CC1=C(/C=C/C(C)=C/C=C/C(C)=C/C=C/C=C(C)/C=C/C=C(C)/C=C/C2=C(C)C[C@@H](O)CC2(C)C)C(C)(C)C[C@H](O)C1 [zeaxanthin]
3900 ± 40	3100 ± 200	1660 ± 10	CC1=C(/C=C/C(C)=C/C=C/C(C)=C/C=C/C=C(C)/C=C/C=C(C)/C=C/C2=C(C)C[C@H](O)CC2(C)C)C(C)(C)C[C@H](O)C1 [meso-zeaxanthin]
2510 ± 40	2040 ± 40	730 ± 6	CC1=C[C@H](O)CC(C)(C)[C@H]1/C=C/C(C)=C/C=C/C(C)=C/C=C/C=C(C)/C=C/C=C(C)/C=C/C1=C(C)C[C@@H](O)CC1(C)C [lutein]
